Laboratory results as given in patent US20240003914A1 (THE SCRIPPS RESEARCH INSTITUTE, priority 2020, published 2024).

Legend:
[1] = test system: C57BL/6 mice; test: Whole blood NAD levels after oral treatment; assay type: in vivo, mouse; details: 6 mg/kg SR005 or 100 mg/kg NAM, normalized by baseline (FIG. 8)
Text: Blood was collected and NAD detected as described in FIGS. 1A-1C. NAD values were normalized by baseline level for each mouse. Each line represents data for one mouse.

[2] = test system: NADases; test: NAD protection from degradation by NADases in brain homogenate; assay type: biochemical, mouse; details: inhibitor added to aliquots of a brain sample after homogenisation; duplicate samples (FIG. 1F)
Procedure: Brain homogenates are disrupted and clarified by sonication (0.5 second per cycle, 45 cycles, 50% power) followed by centrifugation at 12,000 rpm, RT for 5 minutes. Supernatants are collected and fractionated using Amicon Ultra-2 centrifugal units with a 30 kDa cut-off. Flow-through is collected and NAD is measured using a cycling assay (NAD+/NADH-GloTM (Promega). The NAD+/NADH-GloTM assay is a bioluminescent, homogeneous assay for the detection of total NAD metabolite levels comprising the oxidized and reduced forms of NAD (NAD+ and NADH, respectively). An NAD cycling enzyme is used to convert NAD+ to NADH. In the presence of NADH, the provided reductase enzyme reduces a proluciferin reductase substrate to form luciferin. Luciferin is then quantified using Ultra-Glo recombinant luciferase, and the light signal produced is proportional to the amount of NAD+ and NADH in the sample. Cycling between NAD+ and NADH by the NAD cycling enzyme and reductase increases assay sensitivity and provides selectivity for nonphosphorylated NAD+ and NADH compared to the phosphorylated forms NADP+ and NADPH. Reading is performed between 10 and 50 minutes during the linear increase of the signal in a luminescence reader. NAD values are normalized by total protein concentrations. […] Error bars of duplicate samples are shown. […] Error bars of duplicate samples are shown.

Structure (SMILES)	blood NAD levels after treatment [1]	NAD protection from degradation by NADases [2]
NC(=O)c1cccnc1 [NAM, nicotinamide]	Increased blood NAD levels	
O=c1cc(-c2ccc(O)cc2)oc2cc(O)cc(O)c12 [apigenin]		absence of protection
